Where only a bound is given, the exact number is not on record here.

The values below come from publication PMC8909834, “An Orally Bioavailable and Highly Efficacious Inhibitor of CDK9/FLT3 for the Treatment of Acute Myeloid Leukemia” (Cancers, 2022).

The target in assay [1] is FLT3-D835Y (Homo sapiens, UniProt P36888, D835Y). The assay is described as follows: ADP Glo kinase assay. Format: biochemical. Conditions: calculated from IC50 using the Cheng-Prusoff equation. The protocol: (§1) Kinase assay. The ADP Glo^TM kinase assay (Promega, Madison, WI, USA) was used to assess the inhibition by CDDD11-8 of CDKs 1, 2, 4, 6, 7, and 9, as well as the mutant isoforms of FLT3. The assays were performed in accord with the manufacturer’s protocol (Promega) as described previously. Briefly, serial three-fold dilutions of CDDD11-8 were prepared in 100% DMSO from a 2 mM stock solution, followed by 1:40 dilution into Milli-Q water. Subsequently, 1 µL of each sample was incubated with 4 µL of kinase mixture containing a particular CDK enzyme and its substrate, standard kinase buffer [3 mM MgCl2, 50 mM HEPES-NaOH pH 7.5, 3 mM MnCl2, 3 µM Na-orthovanadate, 1 mM dithiothreitol (DTT)], kinase dilution buffer (containing 0.25 mg/mL PEG20,000, 50 mM HEPES-NaOH pH 7.5, 1 mM DTT), and ATP at 37 °C for 30 to 40 min. The final reaction mixture contained 0.5% DMSO in all samples, and the applied kinase concentrations were 1, 1, 10, 40, 20, and 50 nM for CDK1, 2, 4, 6, 7, and 9, respectively. The reaction was stopped by adding ADP-Glo reagent and the mixture was incubated further in the dark at room temperature for 40 min. As a final step, kinase detection reagent was added to each mixture and incubated at room temperature for 30 to 60 min. Luminescence was read using an EnVision® multilabel plate reader (PerkinElmer, Beaconsfield, UK), and half-maximum inhibitory concentrations (IC50) were calculated using a non-linear regression model with a variable slope, plotting log (inhibitor concentration) vs. response using the following formula: Ar%=Bottom+Top−Bottom/1+Inhibitor Concentration/IC50^HillSlope where the relative activity Ar (%) is the signal relative to the controls, IC50 is the half maximum concentration, Hillslope is the steepness of the dose-response curve, Top and Bottom are plateaus reflecting the maximum and minimum in responses on the Y-axis (GraphPad Prism version 7, San Diego, CA, USA). Ki values were calculated from the IC50 using the Cheng−Prusoff equation [32]. Extensive specificity assessment was carried out by Reaction Biology Corporation (Malvern, PA, USA) with 369 kinases using 1 µM CDDD11-8 concentration in a Kinase Hotspot radiolabel assay (for experimental details, please see (Reaction Biology https://www.reactionbiology.com/). Subsequently, Ki values were determined for kinases with greater than 90% inhibition.

Assay [2] has as its target FLT3-ITD (Homo sapiens, UniProt P36888, ITD). As to the kind of experiment: ADP Glo kinase assay. The conditions noted are these: calculated from IC50 using the Cheng-Prusoff equation. The assay is classed as biochemical. How it is done: as §1
For assay [3], the target named is T1, FLT3 (Homo sapiens, UniProt P36888).
T1 construct: purchased Reaction Biology Corporation (Kinase HotSpot)
The assay is described as follows: ADP Glo kinase assay. The assay is classed as biochemical. Conditions: calculated from IC50 using the Cheng-Prusoff equation. How it is done:
as §1

The target of assay [4] is CDK1B (Homo sapiens, UniProt P06493). The assay is described as follows: ADP Glo kinase assay. The assay is classed as biochemical. The conditions noted are these: calculated from IC50 using the Cheng-Prusoff equation. How it is done:
as §1

The target of assay [5] is CDK4D1 (Homo sapiens, UniProt P11802). As to the kind of experiment: ADP Glo kinase assay. The conditions noted are these: calculated from IC50 using the Cheng-Prusoff equation. The assay is classed as biochemical. How it is done: as §1
For assay [6], the target named is CDK6D3 (Homo sapiens, UniProt Q00534). The assay is described as follows: ADP Glo kinase assay. Format: biochemical. Conditions: calculated from IC50 using the Cheng-Prusoff equation. The protocol:
as §1

The subject of assay [7] is K-562. As to the kind of experiment: Cell viability assay (resazurin). Format: cell-based. Conditions: Homo sapiens, K562; K-562, 72 h, mean ± SD. How it is done:
Cell culture. MV4-11, HL60, K-562, THP-1, MO91, and U937 cell lines were from the ATCC (Rockville, MD, USA); MOLM-13, NB4, and PL21 cell lines were from the DSMZ (Braunschweig, Germany); and Jurkat cells were from the ECACC (Salisbury, UK). All cells were cultured in RPMI medium (Sigma-Aldrich) supplemented with 10% to 20% of heat-inactivated fetal bovine serum (Sigma-Aldrich), and cells were maintained at 37 °C, 5% CO2, and 95% humidity. All the cell lines were tested to be mycoplasma-negative using MycoAlert^TM mycoplasma detection kit (Lonza, Derrimut, VIC, Australia).
Cell viability assay. The viability of leukemia cell lines after incubation with CDDD11-8 was determined by their ability to reduce resazurin, as described previously. Cells (5 × 10^3) were seeded into 96-well plates (Corning Inc., Corning, NY, USA) and incubated overnight at 37 °C. Subsequently, they were incubated with CDDD11-8 (concentrations ranging from 0.003 µM to 31.6 µM; using three-fold serial dilutions) or DMSO (final concentration of 0.1%) for 72 h. Afterwards, cells were incubated with 20 µL of resazurin (0.1 mg/mL in PBS) for 4 h at 37 °C under 5% CO2, and the fluorescence intensities were measured using an EnVision® multilabel plate reader at 570 nm (excitation)/585 nm (emission). The concentration required to inhibit cellular growth by 50% (GI50) was determined using the same non-linear regression model as shown above, with Ar (%) = % cell viability, and IC50 replaced with GI50.

Assay [8] deals with MV4-11 cells. As to the kind of experiment: Detection of apoptosis (annexin V/PI assay). The assay is classed as cell-based. The conditions noted are these: MV4-11, 1 µM. How it is done:
(§2) Detection of apoptosis and cell cycle analysis. Detection of apoptosis and cell cycle analysis were performed as described previously. Cells (1 × 10^5 cells/mL) were seeded into a six-well plate (Corning) and incubated overnight at 37 °C, 5% CO2 prior to incubation with different concentrations of CDDD11-8 or control (0.1% final DMSO concentration) for 6, 24, or 72 h. For washout experiments, cells were incubated with compounds for 6 h, then washed three times with 1 × PBS interspersed with centrifugation at 300× g for 5 min to remove compound. After incubation at 37 °C under 5% CO2, cells were centrifuged at 300× g for 5 min to form a pellet, washed with PBS, and incubated with Annexin V/PI (Becton Dickenson, Franklin Lakes, NJ, USA) for 15 min in the dark. For cell cycle analysis, cells were fixed with 70% ethanol (v/v, 4 °C) and incubated in the dark with cell cycle staining solution (50 µg/mL PI, 0.1 mg/mL RNase A, 0.05% Triton X-100) for 1.5 h. Samples were analyzed using a CytoFlex flow cytometer (Beckman Coulter, Brea, CA, USA). Data were analyzed with CytExpert software version 2.1 (Beckman Coulter, Brea, CA, USA).

Assay [9] concerns MOLM-13 cells. The assay is described as follows: Detection of apoptosis (annexin V/PI assay). The assay is classed as cell-based. Conditions: MOLM-13, 1 µM. How it is done: as §2
Assay [10] deals with THP-1 cells. As to the kind of experiment: Detection of apoptosis (annexin V/PI assay). The assay is classed as cell-based. The conditions noted are these: apoptosis seen at 1.5 µM and 24 and 72 h. The protocol:
as §2

In assay [11] the target is T2, TAOK1 (Homo sapiens, UniProt Q7L7X3).
T2 construct: purchased Reaction Biology Corporation (Kinase HotSpot)
As to the kind of experiment: Kinase Hotspot radiolabel assay. Format: biochemical. Conditions: read-out: % Residual Activity.

T2 sequence (Q7L7X3 whole entry): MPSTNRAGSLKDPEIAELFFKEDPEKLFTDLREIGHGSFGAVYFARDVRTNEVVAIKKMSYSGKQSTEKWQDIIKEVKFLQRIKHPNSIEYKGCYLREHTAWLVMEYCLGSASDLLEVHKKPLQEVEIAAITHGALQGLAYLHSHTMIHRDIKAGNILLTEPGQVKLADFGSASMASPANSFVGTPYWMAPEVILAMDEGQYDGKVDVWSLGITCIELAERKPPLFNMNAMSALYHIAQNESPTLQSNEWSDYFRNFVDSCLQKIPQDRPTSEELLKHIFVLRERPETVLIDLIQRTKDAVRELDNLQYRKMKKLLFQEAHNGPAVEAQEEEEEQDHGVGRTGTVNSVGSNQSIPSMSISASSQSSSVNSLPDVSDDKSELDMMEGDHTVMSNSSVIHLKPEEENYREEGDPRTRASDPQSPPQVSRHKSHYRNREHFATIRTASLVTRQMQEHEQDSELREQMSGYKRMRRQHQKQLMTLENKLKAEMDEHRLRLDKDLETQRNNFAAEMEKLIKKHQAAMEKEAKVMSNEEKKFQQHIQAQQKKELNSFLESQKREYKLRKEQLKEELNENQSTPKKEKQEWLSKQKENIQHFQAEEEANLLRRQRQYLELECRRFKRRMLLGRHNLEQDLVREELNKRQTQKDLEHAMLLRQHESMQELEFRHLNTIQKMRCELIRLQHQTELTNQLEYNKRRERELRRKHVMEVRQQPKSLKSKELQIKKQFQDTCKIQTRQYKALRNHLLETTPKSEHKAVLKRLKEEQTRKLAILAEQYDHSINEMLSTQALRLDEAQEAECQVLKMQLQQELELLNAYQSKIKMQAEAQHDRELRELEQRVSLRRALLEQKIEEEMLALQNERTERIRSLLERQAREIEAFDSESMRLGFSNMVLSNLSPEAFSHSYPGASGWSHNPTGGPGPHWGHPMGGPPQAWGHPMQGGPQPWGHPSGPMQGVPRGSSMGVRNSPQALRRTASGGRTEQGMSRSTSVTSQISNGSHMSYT
Sequence of CDK6D3 (Q00534 whole entry): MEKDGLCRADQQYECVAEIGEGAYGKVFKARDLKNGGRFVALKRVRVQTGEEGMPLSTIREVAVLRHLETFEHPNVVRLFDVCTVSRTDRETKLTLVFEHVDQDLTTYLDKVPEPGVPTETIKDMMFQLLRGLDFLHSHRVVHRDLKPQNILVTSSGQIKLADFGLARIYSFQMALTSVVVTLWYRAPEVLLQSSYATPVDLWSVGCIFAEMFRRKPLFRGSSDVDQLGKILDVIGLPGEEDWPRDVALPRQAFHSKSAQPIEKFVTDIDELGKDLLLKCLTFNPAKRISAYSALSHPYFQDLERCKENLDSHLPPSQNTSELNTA
Sequence of CDK6D3 (P30281 whole entry partner): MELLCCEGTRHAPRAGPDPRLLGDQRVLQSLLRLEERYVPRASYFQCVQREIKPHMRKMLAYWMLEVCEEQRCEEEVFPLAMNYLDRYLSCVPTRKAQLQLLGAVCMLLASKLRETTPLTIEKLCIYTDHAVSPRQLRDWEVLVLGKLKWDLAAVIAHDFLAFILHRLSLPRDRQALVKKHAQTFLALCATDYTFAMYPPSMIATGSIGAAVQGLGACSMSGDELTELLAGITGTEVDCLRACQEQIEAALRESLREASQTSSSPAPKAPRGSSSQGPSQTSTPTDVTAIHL
Sequence of CDK1B (P06493 whole entry): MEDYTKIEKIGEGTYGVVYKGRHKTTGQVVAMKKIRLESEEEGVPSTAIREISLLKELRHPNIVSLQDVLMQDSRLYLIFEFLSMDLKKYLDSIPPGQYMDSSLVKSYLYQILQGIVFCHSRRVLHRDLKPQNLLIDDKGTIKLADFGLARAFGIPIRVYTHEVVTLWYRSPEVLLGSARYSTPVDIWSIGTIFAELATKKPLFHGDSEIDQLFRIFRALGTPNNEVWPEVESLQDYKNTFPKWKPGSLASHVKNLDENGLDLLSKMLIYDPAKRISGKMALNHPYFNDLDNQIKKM
Sequence of CDK1B (P14635 whole entry partner): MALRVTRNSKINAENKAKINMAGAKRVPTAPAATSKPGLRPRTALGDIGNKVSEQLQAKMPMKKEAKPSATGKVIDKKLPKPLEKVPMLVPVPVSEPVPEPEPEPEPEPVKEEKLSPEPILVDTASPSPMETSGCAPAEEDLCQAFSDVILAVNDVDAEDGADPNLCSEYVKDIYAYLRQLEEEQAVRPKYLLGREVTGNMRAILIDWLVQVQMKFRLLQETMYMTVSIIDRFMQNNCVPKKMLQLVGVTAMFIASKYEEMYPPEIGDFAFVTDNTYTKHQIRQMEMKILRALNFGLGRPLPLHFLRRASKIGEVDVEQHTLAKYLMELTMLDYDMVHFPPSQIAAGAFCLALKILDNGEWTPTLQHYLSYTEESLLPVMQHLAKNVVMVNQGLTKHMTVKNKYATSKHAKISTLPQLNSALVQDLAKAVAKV
Sequence of CDK4D1 (P11802 whole entry): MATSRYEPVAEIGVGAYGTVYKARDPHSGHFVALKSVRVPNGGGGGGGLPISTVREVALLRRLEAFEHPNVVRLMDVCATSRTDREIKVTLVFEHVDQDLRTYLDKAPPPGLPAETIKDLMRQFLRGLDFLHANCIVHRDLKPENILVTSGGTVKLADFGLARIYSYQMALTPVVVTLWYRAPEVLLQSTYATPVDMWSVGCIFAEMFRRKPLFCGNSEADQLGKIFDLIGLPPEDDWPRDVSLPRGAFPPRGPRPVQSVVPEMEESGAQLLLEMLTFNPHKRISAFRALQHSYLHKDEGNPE
Sequence of CDK4D1 (P24385 whole entry partner): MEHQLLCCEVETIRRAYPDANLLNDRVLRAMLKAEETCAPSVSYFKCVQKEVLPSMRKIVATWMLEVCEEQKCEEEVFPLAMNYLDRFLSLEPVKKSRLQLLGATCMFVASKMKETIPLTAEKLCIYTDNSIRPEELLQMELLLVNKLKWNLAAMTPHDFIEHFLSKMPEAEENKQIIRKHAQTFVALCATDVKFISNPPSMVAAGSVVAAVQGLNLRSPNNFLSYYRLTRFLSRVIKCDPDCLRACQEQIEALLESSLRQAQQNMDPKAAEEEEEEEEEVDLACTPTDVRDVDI

Regarding `Cc1cnc(N[C@H]2CC[C@H](N)CC2)nc1-c1cnc2ccc(-c3ccccc3)cn12` [CDDD11-8], the inhibition constant Ki is 7 nM in [1]; 13 nM in [2]; 46 nM in [3]; greater than 1000 nM in assay [4]; greater than 1000 nM in [5]; greater than 1000 nM in assay [6]. For the same molecule, growth in assay [7] was halved (GI50) at 1500 ± 47 nM. Also, the “apoptotic (Annexin V-positive) cells” value is on record as 51% in [8] (6 h) and 86% in assay [9] (6 h). Further, the “apoptotic cells after washout” value in [8] (6 h then 24 h without compound) is given as 28%; in assay [9] (6 h then 24 h without compound), 61%. Further, the induction of apoptosis entry in assay [10] was “less impact”. In assay [11], the remaining activity at 1 µM stood at 45.5%.
